Experimental data reported in ChEMBL document CHEMBL4049459, “1,4,5-Trisubstituted Imidazole-Based p53-MDM2/MDMX Antagonists with Aliphatic Linkers for Conjugation with Biological Carriers” (J Med Chem, 2017).
Active and inactive are the calls of the source. No cut-off for these calls is given here.

How the values were obtained:
U2OS [1] = experiment: Cell cycle arrest in wild type p53 expressing human U2OS cells assessed as decrease in accumulation at S phase at 10 uM after 24 hrs by propidium iodide-based FACS analysis; type: functional
U2OS [2] = experiment: Cell cycle arrest in wild type p53 expressing human U2OS cells assessed as increase in accumulation at G1 phase at 10 uM after 24 hrs by propidium iodide-based FACS analysis; type: functional
U2OS [3] = experiment: Cell cycle arrest in wild type p53 expressing human U2OS cells assessed as decrease in accumulation at S phase at 5 uM after 24 hrs by propidium iodide-based FACS analysis; type: functional
U2OS [4] = experiment: Cell cycle arrest in wild type p53 expressing human U2OS cells assessed as increase in accumulation at G1 phase at 5 uM after 24 hrs by propidium iodide-based FACS analysis; type: functional
U2OS [5] = experiment: cells; settings: Homo sapiens, 24 h
Description: Cytotoxicity against wild type p53 expressing human U2OS cells assessed as cell growth inhibition after 24 hrs by MTT assay

SAOS-2 = experiment: cells; settings: Homo sapiens, SAOS-2, 24 h
Description: Cytotoxicity against p53 deficient human Saos2 cells assessed as cell growth inhibition after 24 hrs by MTT assay

[6] = target: E3 ubiquitin-protein ligase Mdm2 (Homo sapiens) (UniProt Q00987); experiment: Inhibition of p53-MDM2 interaction in human HCT116 cells assessed as p53 activation by measuring increase in p21 expression at 1 uM after 24 hrs by Western blot analysis; type: cell-based
E3 ubiquitin-protein ligase Mdm2 (Homo sapiens), sequence (Q00987 whole entry, looked up): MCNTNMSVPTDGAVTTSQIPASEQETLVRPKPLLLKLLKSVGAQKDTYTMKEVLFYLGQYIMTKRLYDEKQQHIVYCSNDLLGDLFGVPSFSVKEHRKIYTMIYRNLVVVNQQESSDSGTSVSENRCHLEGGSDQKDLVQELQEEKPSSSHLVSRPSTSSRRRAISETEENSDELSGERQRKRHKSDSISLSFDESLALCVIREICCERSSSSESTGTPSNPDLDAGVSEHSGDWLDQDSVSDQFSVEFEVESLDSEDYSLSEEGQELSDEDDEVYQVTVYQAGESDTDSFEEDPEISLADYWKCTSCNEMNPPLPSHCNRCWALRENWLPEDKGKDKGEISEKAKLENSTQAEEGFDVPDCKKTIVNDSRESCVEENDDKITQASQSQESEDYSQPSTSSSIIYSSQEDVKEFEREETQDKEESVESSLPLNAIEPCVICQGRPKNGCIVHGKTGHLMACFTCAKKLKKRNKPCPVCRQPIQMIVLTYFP

[7] = target: E3 ubiquitin-protein ligase Mdm2 (Homo sapiens) (UniProt Q00987); experiment: Inhibition of p53-MDM2 interaction in human U2OS cells assessed as p53 activation by measuring increase in MDM2 expression at 1 uM after 7 hrs by Western blot analysis; type: cell-based
U2OS [8] = experiment: Cell cycle arrest in wild type p53 expressing human U2OS cells assessed as decrease in accumulation at S phase at 1 uM after 24 hrs by propidium iodide-based FACS analysis; type: functional
U2OS [9] = experiment: Cell cycle arrest in wild type p53 expressing human U2OS cells assessed as increase in accumulation at G1 phase at 1 uM after 24 hrs by propidium iodide-based FACS analysis; type: functional
[10] = target: E3 ubiquitin-protein ligase Mdm2 (Homo sapiens) (UniProt Q00987); experiment: Inhibition of p53-MDM2 interaction in human U2OS cells assessed as p53 activation by measuring p21 accumulation at 1 uM after 7 hrs by Western blot analysis; type: cell-based
[11] = target: E3 ubiquitin-protein ligase Mdm2 (Homo sapiens) (UniProt Q00987); experiment: Inhibition of p53-MDM2 interaction in human U2OS cells assessed as p53 accumulation at 1 uM after 7 hrs by Western blot analysis; type: cell-based
[12] = target: E3 ubiquitin-protein ligase Mdm2 (Homo sapiens) (UniProt Q00987); experiment: Inhibition of p53-MDM2 interaction in human U2OS cells assessed as p53 activation by measuring increase in p21 expression at 1 uM after 24 hrs by Western blot analysis; type: cell-based
[13] = target: E3 ubiquitin-protein ligase Mdm2 (Homo sapiens) (UniProt Q00987); experiment: Inhibition of p53-MDM2 interaction in human HCT116 cells assessed as p53 activation by measuring increase in MDM2 expression at 1 uM after 7 hrs by Western blot analysis; type: cell-based
[14] = Selectivity ratio of IC50 for human Saos2 cells to IC50 for human U2OS cells

Row | IC50 (U2OS [5]) [µM] | IC50 (SAOS-2) [µM] | Compound | Activity (U2OS [1]) | Activity (U2OS [2]) | Activity (U2OS [3]) | Activity (U2OS [4]) | also measured
1 | – | – | O=C(O)CCC(=O)OCCCCCCOC(=O)c1[nH]c2cc(Cl)ccc2c1-c1c(-c2ccc(F)cc2)ncn1Cc1ccc(Cl)cc1 | Active | Active | – | – | –
2 | 3.67 | 7.15 | O=C(NCCN1CCOCC1)c1[nH]c2cc(Cl)ccc2c1-c1c(-c2ccc(F)cc2)ncn1Cc1ccc(Cl)cc1 | Active | Active | Active | Active | –
3 | 17.4 | 55.8 | O=C(O)c1[nH]c2cc(Cl)ccc2c1-c1c(-c2ccc(F)cc2)ncn1Cc1ccc(Cl)cc1 | Active | Active | – | – | –
4 | – | – | COc1cc(C(=O)O)ccc1NC(=O)[C@@H]1N[C@@H](CC(C)(C)C)[C@](C#N)(c2ccc(Cl)cc2F)[C@H]1c1cccc(Cl)c1F | – | – | – | – | inhibition [6]: Active; inhibition [7]: Active; Activity (U2OS [8]): Active; Activity (U2OS [9]): Active; inhibition [10]: Active; inhibition [11]: Active; inhibition [12]: Active; inhibition [13]: Active
5 | 2.66 | 20.2 | COc1ccc(C2=N[C@H](c3ccc(Cl)cc3)[C@H](c3ccc(Cl)cc3)N2C(=O)N2CCNC(=O)C2)c(OC(C)C)c1 | – | – | – | – | Ratio IC50 [14]: 7.59
6 | – | – | O=C(O)CCC(=O)NCCCCCCOC(=O)c1[nH]c2cc(Cl)ccc2c1-c1c(-c2ccc(F)cc2)ncn1Cc1ccc(Cl)cc1 | – | – | Active | Active | –
7 | 7.27 | 11.7 | O=C(OCCN1CCOCC1)c1[nH]c2cc(Cl)ccc2c1-c1c(-c2ccc(F)cc2)ncn1Cc1ccc(Cl)cc1 | – | – | Active | Active | –
